{"source": "patent US20240050421A1", "about": "“PHARMACEUTICAL FORMULATIONS OF A PHENOLIC TRPV1 AGONIST PRODRUG” (Concentric Analgesics, Inc., priority 2020, published 2024)", "assay": "Water solubility / hydrophilicity compared with capsaicin", "assay_type": "physicochemical", "settings": "general statement, no method or figures given"}
{"compound": "CNCC1CCCCN1C(=O)Oc1ccc(CNC(=O)CCCC/C=C/C(C)C)cc1OC.Cl", "note": "(stereo not shown) [Compound 1, (E)-2-methoxy-4-((8-methylnon-6-enamido)methyl)phenyl 2-((methylamino)methyl)piperidine-1-carboxylate]", "values": [{"measurement": "hydrophilicity/water solubility", "value": "significantly higher hydrophilicity/water solubility than capsaicin"}]}
